One compound from US20240409935A1, “Atg8ylation coordinates stress granule formation and mTOR inactivation in response to lysosomal damage” (priority 2023, published 2024) can be followed below.

Experiment [1] relates to mTOR and Raptor on lysosomes. The experiment in a line: LysoIP quantitative DIA proteomics (LC/MS/MS) of lysosomes from HEK293T cells. The format is cell-based, human. The settings on record: 1 mM LLOMe for 30 min. As for the experimental part: Three groups of proteins are labeled (ESCRT components in green, autophagy factors in blue and stress granule components in purple). […] The dotted orange line indicates the significance cut-off (P<0.05). […] The significant increased proteins in LysoIP LC/MS/MS were analyzed by STRING functional protein association networks. […] Strength, Log 10(observed/expected) describes how large the enrichment effect is. […] TMEM192-2×FLAG, control. […] U20S cells Were treated with Earle's Balanced Salt Solution (EBSS), 4 mM LOMe, 2 mM LLOMe, 200 μM GPN, or 400 μg/mL silica for 30 min. White masks, algorithm-defined cell boundaries (primary objects); red masks, computer-identified G3BP1 puncta (target objects). […] U2OS cells Were treated with 2 mM LLOMe for 30 min and stained for endogenous G3BP1. Scale bar, 5 μm. […] Green masks, computer-identified G3BP1 puncta. […] Red masks, computer-identified Galectin-3 puncta. FIG. 1G Immunoblot analysis of eIF2α (S51) phosphorylation in U2OS cells treated with 2 mM LLOMe for 30 min and followed by 1 h washout. […] The level of phosphorylation of eIF2α (S51) is quantified based on three independent experiments. […] Scale bar, 5/10 μm. […] The level of ATF4 and phosphorylation of eIF2α (S51) and 4EBP1 (S65) are quantified based on three independent experiments. Ctrl, control (untreated cells). […]

In a further experiment the test system is GABARAP. The experiment in a line: Immunoblot analysis of GABARAP lipidation in U2OS cells. The format is cell-based, human. The settings on record: 2 mM LLOMe, indicated time points.
For another experiment, the system named is ALIX, PKR and PACT. The experiment in a line: Co-IP analysis of interactions among FLAG-ALIX, PKR and PACT in HEK293T cells. The format is cell-based, human. The settings on record: 1 mM LLOMe for 30 min. The method, then: HEK293T cells expressing FLAG (control) or FLAG-ALIX Were treated with 1 mM LLOMe for 30 min. Cell lysates Were immunoprecipitated with anti-FLAG antibody and immunoblotted for indicated proteins. […] FL (full length); Bro1 (Bro1 domain); V domain; PRD (proline-rich domain). Numbers, residue positions. (ii) Schematic illustration of the Ca^2+/ALG-2-induced open conformation of ALIX. […] HEK293T cells expressing FLAG tagged ALIX mutants and Myc-PKR Were treated with 1 mM LLOMe for 30 min. Cell lysates Were immunoprecipitated with anti-GFP antibody and immunoblotted for indicated proteins. FIG. 12F Analysis of proteins associated with purified lysosomes (LysoIP; TMEM192-3×HA) from HEK293T cells transfected with scrambled siRNA as control (SCR), or ALIX siRNA for knockdown (ALIX^KD). Cells Were treated with 1 mM LLOMe for 30 min. FIG. 12G Schematic summary of the findings in FIGS. 5 and S5. One of three independent western Blot experiments shown. See also FIG. 1S1.

For the next experiment, the system named is mTOR. The experiment in a line: mTOR/mTORC1 activity by phosphorylation of its substrates (4EBP1 S65, ULK1 S757, S6K1 T389) in U2OS cells. The experiment is classed as cell-based, human. The settings on record: U2OS cells.
For experiment [2], the system named is G3BP1+ SGs and lysosomes (LAMP2). The experiment in a line: HCM quantification of G3BP1+ SGs associated with lysosomes (LAMP2). The experiment is classed as cell-based. The note with it: 30 min after exposure to LLOMe. The method, then: Do SGs induced by lysosomal damage associate with lysosomes? The inventors addressed this by imaging analysis. By confocal fluorescence microscopy, the majority of G3BP1-positive SGs formed during lysosomal damage were either independent of lysosomes or juxtaposed to lysosomes (FIG. 3SA). By HCM quantification, only 10% of G3BP1^+ SGs appeared associated with lysosomes (LAMP2) 30 min after exposure to lysosomal damaging agent LLOMe. The inventors then asked the question whether SGs formed in response to lysosomal damage initiate as a nidus on the lysosomal surface. Using live microscopy, the inventors observed that the majority of SGs Were forming in locations independent of lysosomes (FIG. 3SB).

Experiment [3] deals with eIF2α (S51) phosphorylation. As to the kind of experiment: Immunoblot analysis of eIF2α (S51) phosphorylation in U2OS cells. The format is cell-based, human. The settings on record: U2OS cells.
Setting [4] is: indicated dose of LLOMe for 30 min.

As for `COC(=O)[C@H](CC(C)C)NC(=O)[C@@H](N)CC(C)C` [LLOMe, L-leucyl-L-leucine methyl ester], the “mTOR and Raptor association with lysosomes (mass spectrometry)” value in experiment [1] was “mTOR and Raptor dissociate from lysosomes”. In the experiment with GABARAP, the GABARAP lipidation result is listed as “GABARAP was lipidated”. In the experiment on ALIX, PKR and PACT, the “interaction between FLAG-ALIX and endogenous PKR and PACT (co-IP)” value was “notably enhanced”. Further, the “ULK1 phosphorylation by mTOR at Ser757” value in the experiment with mTOR (2 mM LLOMe for 30 min) is “diminished”. Besides, in the experiment on mTOR (2 mM LLOMe, indicated time points), the “mTOR activity as measured by 4EBP1 phosphorylation” value is given as “inhibition of mTOR”. The “mTORC1 inactivation (4EBP1 S65), dose dependence” value in the experiment on mTOR (setting [4]) is reported as “mTORC1 inactivation in a dose-dependent manner”. The “G3BP1+ SGs associated with lysosomes (LAMP2)” value in experiment [2] was found to be 10%. In experiment [3] (2 mM LLOMe 30 min followed by 1 h washout), the “eIF2α pS51 response after LLOMe washout” value is “subsided”. Moreover, in experiment [3] (2 mM LLOMe for 30 min), the “phosphorylation of eIF2α on Ser51” value was “induced phosphorylation of eIF2α on Ser51”. For the same compound, in experiment [3] (2 mM LLOMe, later time points), the “phosphorylated eIF2α at later times during treatment” value is “reduced levels of phosphorylated eIF2α at later times”. The “eIF2α phosphorylation, dose dependence” value in experiment [3] (setting [4]) is “induced eIF2α phosphorylation”.
